{
  "source": "patent US20070065850A1",
  "about": "“Method for diagnosis of heart failure” (OSAKA UNIVERSITY, priority 2005, published 2007)",
  "key": {"[1]": {"tested_on": "cultured neonatal rat cardiac myocytes", "test": "CHOP expression by real-time quantitative RT-PCR after treatment with pharmacological ER stress inducers", "format": "cell-based", "settings": "for CHOP/GAPDH: cultured cardiac myocytes 48 hours after treatment with ER stress inducer, untreated 1.0, mean±SEM", "procedure": "Primary cultures of cardiac myocytes were prepared from neonatal rat hearts as described previously (13). All procedures were performed in accordance with the guidline of Osaka University School of Medicine with regard to animal care and the “Position of the American Heart Association on Research Animal Use.”\n(§1) RT-PCR of human and rat heart samples was performed according to the Omniscript Reverse Transcription handbook (QIAGEN Inc.). The human and rat primers and probes used for quantification of BNP, GRP78, CHOP, and GAPDH were all designed according to the manufacturer's protocol (Applied Biosystems, https://www.appliedbiosystems.com/catalog/). Real-time quantitative RT-PCR was performed with an ABI PRISM 7700 Sequence Detection System (Applied Biosystems) by the relative standard curve method. The target amount was determined from the relative standard curves constructed with serial dilutions of the control total RNA."}, "[2]": {"tested_on": "neonatal rat cardiac myocytes", "test": "Apoptotic cell assay (TUNEL)", "format": "cell-based", "procedure": "The terminal deoxynucleotidyl transferase-mediated dUTP nick end labeling (TUNEL) assay was performed as described previously (7). Forty eight hours after the treatment of neonatal rat cardiac myocytes with tunicamycin (Sigma-Aldrich), cells were subjected to TUNEL staining. The TUNEL-positive cardiac myocytes counted in DAPI-positive cardiac myocytes (n=100, 5 times) were expressed as a percentage.\n(§2) The inventors designed 3 different short interfering RNAs (siRNA) with 3′ dTdT overhangs to knock down CHOP mRNA (CHOP siRNA-1: 5′-CCUUCACUACUCUUGACCC-3′ (SEQ ID NO. 1), siRNA-2: 5′-GAUCAAGGAAGAACUAGGA-3′ (SEQ ID NO. 2), siRNA-3: 5′-GGAGCAGGAGAAUGAGAGG-3′(SEQ ID NO. 3) and ordered Dharmacon Inc. to synthesize them. After rat cardiac myocytes were isolated, they were incubated in Dulbecco's modified Eagle's medium (Invitrogen Corporation) Opti-MEM (Invitrogen Corporation), siRNA oligonucleotides (CHOP siRNA 1-3) (60 nM) and Optifect (Invitrogen Corporation) were added on the day of cardiac myocyte isolation. As a negative control, cells were transfected with siRNA against firefly luciferase from Photinus pyralis (GL2 siRNA) (15). Messenger RNA and protein levels of CHOP were measured 24 and 48 hrs after the transfection of CHOP siRNA, respectively."}, "[3]": {"tested_on": "cardiac myocytes", "test": "MTT assay (cell viability)", "format": "cell-based, rat", "settings": "tunicamycin for 48 hours", "procedure": "Cardiac myocytes were treated with tunicamycin for 48 hours, after which cell viability was assessed by MTT assay according to the manufacturer's instructions (Cell Counting Kit-8, Wako Pure Chemical Industries, Ltd.). The percentage of viable cells was determined by taking the value for untreated cells as 100%.\nas §2"}, "[4]": {"tested_on": "CHOP mRNA", "test": "CHOP mRNA knockdown by siRNA transfection (RNA interference), real-time quantitative RT-PCR", "format": "cell-based, rat", "settings": "siRNA 60 nM, mean±SEM", "procedure": "as §1\nas §2, with “As a negative control, cells were transfected with siRNA against firefly luciferase from Photinus pyralis (GL2 siRNA) (15).” left out, “respectively. […]” for “respectively.”"}, "[5]": {"tested_on": "CHOP", "test": "CHOP protein level by immunoblotting after siRNA transfection", "format": "cell-based, rat", "settings": "cardiac myocytes treated with tunicamycin; protein measured 48 hrs after transfection; actin internal control", "procedure": "Immunoblotting was performed as described previously (13). Primary antibodies targeting CHOP (sc-793) and actin (sc-1615) were purchased from Santa Cruz Biotechnology. Forty eight hours after the treatment of neonatal rat cardiac myocytes with tunicamycin (Sigma-Aldrich), cardiac myocytes were harvested.\nas §2"}},
  "note": "d = 2'-deoxy (DNA)",
  "data": [
    {"compound": "C[C@H]1CCC/C=C/[C@@H]2C[C@H](O)C[C@H]2[C@H](O)/C=C/C(=O)O1", "note": "[brefeldin A]", "values": [
      {"measurement": "CHOP/GAPDH", "setting": "[1]", "result": "8.1±0.7"}
    ]},
    {"compound": "C/C=C(/C)C(=O)O[C@H]1C(C)=C2[C@H]([C@@H]1OC(=O)CCCCCCC)[C@@](C)(OC(C)=O)C[C@H](OC(=O)CCC)[C@@]1(O)[C@H]2OC(=O)[C@@]1(C)O", "note": "[thapsigargin]", "values": [
      {"measurement": "CHOP/GAPDH", "setting": "[1]", "result": "19.0±0.3"}
    ]},
    {"compound": "tunicamycin", "values": [
      {"measurement": "CHOP expression (real-time quantitative RT-PCR)", "setting": "[1]; cultured neonatal rat cardiac myocytes treated with tunicamycin, normalized for GAPDH, compared with 0 hour", "result": "increase"},
      {"measurement": "Number of TUNEL-positive cardiac myocytes", "setting": "[2]; 48 hours after treatment with tunicamycin, vs. no treatment", "result": "increased"},
      {"measurement": "Cell viability (MTT assay)", "setting": "[3]; untreated cells as 100%", "result": "decreased"}
    ]},
    {"compound": "CHOP siRNA-2: siRNA with 3′ dTdT overhangs to knock down CHOP mRNA: 5′-GAUCAAGGAAGAACUAGGA-3′ (SEQ ID NO. 2) (RNA, 3' dTdT, backbone not given here)", "values": [
      {"measurement": "CHOP/GAPDH after transfection of siRNA, induction by brefeldin A", "setting": "[4]; brefeldin A alone 8.1±0.7", "result": "2.2±0.8"},
      {"measurement": "CHOP/GAPDH after transfection of siRNA, induction by thapsigargin", "setting": "[4]; thapsigargin alone 19.0±0.3", "result": "2.1±1.0"},
      {"measurement": "protein level of CHOP after transfection of siRNA", "setting": "[5]", "result": "almost completely suppressed"},
      {"measurement": "Effect of siRNA on the tunicamycin-induced increase of TUNEL-positive cardiac myocytes", "setting": "[2]; tunicamycin 48 hours, siRNA 60 nM", "result": "attenuated"},
      {"measurement": "Effect of siRNA on the tunicamycin-induced decrease of cell viability", "setting": "[3]; siRNA 60 nM", "result": "attenuated"}
    ]}
  ]
}
